According to ChEMBL document CHEMBL3045111, “Synthesis and herbicidal activities of novel 3-(substituted benzyloxy or phenoxy)-6-methyl-4-(3-trifluoromethylphenyl)pyridazine derivatives” (2012):
Activity calls are given as the source filed them. The rule behind the calls is not given here.

How the values were obtained:
Echinochloa crus-galli [1] = test: Pre-emergence herbicidal activity against Echinochloa crus-galli (barnyard grass) under greenhouse condition at 750 g /ha measured after 24 days by spray method; type: functional; conditions: 576 h, read-out: GI
Amaranthus retroflexus [2] = test: Post-emergence herbicidal activity against one-leaf stage Amaranthus retroflexus under greenhouse condition at 150 g /ha measured after 24 days by spray method; type: functional; conditions: 576 h, read-out: GI
[3] = test system: Brassica rapa subsp. oleifera; test: Post-emergence herbicidal activity against one-leaf stage Brassica rapa subsp. oleifera under greenhouse condition assessed as complete bleaching of leaves at 300 g /ha measured after 24 days by spray method; type: functional, organism-based
[4] = test system: Brassica rapa subsp. oleifera; test: Post-emergence herbicidal activity against one-leaf stage Brassica rapa subsp. oleifera under greenhouse condition assessed as complete bleaching of leaves at 600 g /ha measured after 24 days by spray method; type: functional, organism-based
[5] = test system: Brassica rapa subsp. oleifera; test: Post-emergence herbicidal activity against one-leaf stage Brassica rapa subsp. oleifera under greenhouse condition at 750 g /ha measured after 24 days by spray method; type: functional; conditions: 576 h, read-out: GI
Digitaria [6] = test: Pre-emergence herbicidal activity against Digitaria adscendens under greenhouse condition at 750 g /ha measured after 24 days by spray method; type: functional; conditions: in Digitaria adscendens, 576 h, read-out: GI
Spirodela polyrhiza [7] = test: Bleaching herbicidal activity in Spirodela polyrhiza fronds cultured in compound-containing in medium assessed as chlorophyll inhibition at 1 ug/ml after 7 days; type: functional; conditions: 168 h
Amaranthus retroflexus [8] = test: Post-emergence herbicidal activity against one-leaf stage Amaranthus retroflexus under greenhouse condition assessed as complete bleaching of leaves at 150 g /ha measured after 24 days by spray method; type: functional, organism-based
Spirodela polyrhiza [9] = test: Bleaching herbicidal activity in Spirodela polyrhiza fronds cultured in compound-containing in medium assessed as chlorophyll inhibition at 10 ug/ml after 7 days; type: functional; conditions: 168 h
[10] = test system: Brassica rapa subsp. oleifera; test: Post-emergence herbicidal activity against one-leaf stage Brassica rapa subsp. oleifera under greenhouse condition assessed as complete bleaching of leaves at 75 g /ha measured after 24 days by spray method; type: functional, organism-based
Amaranthus retroflexus [11] = test: Post-emergence herbicidal activity against one-leaf stage Amaranthus retroflexus under greenhouse condition at 75 g /ha measured after 24 days by spray method; type: functional; conditions: 576 h, read-out: GI
[12] = test system: Brassica rapa subsp. oleifera; test: Post-emergence herbicidal activity against one-leaf stage Brassica rapa subsp. oleifera under greenhouse condition at 75 g /ha measured after 24 days by spray method; type: functional; conditions: 576 h, read-out: GI
Amaranthus retroflexus [13] = test: Post-emergence herbicidal activity against one-leaf stage Amaranthus retroflexus under greenhouse condition assessed as complete bleaching of leaves at 300 g /ha measured after 24 days by spray method; type: functional, organism-based
Amaranthus retroflexus [14] = test: Post-emergence herbicidal activity against one-leaf stage Amaranthus retroflexus under greenhouse condition at 600 g /ha measured after 24 days by spray method; type: functional; conditions: 576 h, read-out: GI
Amaranthus retroflexus [15] = test: Post-emergence herbicidal activity against one-leaf stage Amaranthus retroflexus under greenhouse condition at 300 g /ha measured after 24 days by spray method; type: functional; conditions: 576 h, read-out: GI
[16] = test system: Brassica rapa subsp. oleifera; test: Pre-emergence herbicidal activity against Brassica rapa subsp. oleifera under greenhouse condition at 750 g /ha measured after 24 days by spray method; type: functional; conditions: 576 h, read-out: GI
Amaranthus retroflexus [17] = test: Post-emergence herbicidal activity against one-leaf stage Amaranthus retroflexus under greenhouse condition assessed as complete bleaching of leaves at 600 g /ha measured after 24 days by spray method; type: functional, organism-based
Amaranthus retroflexus [18] = test: Pre-emergence herbicidal activity against Amaranthus retroflexus under greenhouse condition at 750 g /ha measured after 24 days by spray method; type: functional; conditions: 576 h, read-out: GI
Echinochloa crus-galli [19] = test: Post-emergence herbicidal activity against one-leaf stage of Echinochloa crus-galli (barnyard grass) under greenhouse condition at 750 g /ha measured after 24 days by spray method; type: functional; conditions: 576 h, read-out: GI
Amaranthus retroflexus [20] = test: Post-emergence herbicidal activity against one-leaf stage of Amaranthus retroflexus under greenhouse condition at 750 g /ha measured after 24 days by spray method; type: functional; conditions: 576 h, read-out: GI
[21] = test system: Brassica rapa subsp. oleifera; test: Post-emergence herbicidal activity against one-leaf stage Brassica rapa subsp. oleifera under greenhouse condition at 600 g /ha measured after 24 days by spray method; type: functional; conditions: 576 h, read-out: GI
[22] = test system: Brassica rapa subsp. oleifera; test: Post-emergence herbicidal activity against one-leaf stage Brassica rapa subsp. oleifera under greenhouse condition at 150 g /ha measured after 24 days by spray method; type: functional; conditions: 576 h, read-out: GI
Digitaria [23] = test: Post-emergence herbicidal activity against one-leaf stage of Digitaria adscendens under greenhouse condition at 750 g /ha measured after 24 days by spray method; type: functional; conditions: in Digitaria adscendens, 576 h, read-out: GI
[24] = test system: Brassica rapa subsp. oleifera; test: Post-emergence herbicidal activity against one-leaf stage Brassica rapa subsp. oleifera under greenhouse condition at 300 g /ha measured after 24 days by spray method; type: functional; conditions: 576 h, read-out: GI
[25] = test system: Brassica rapa subsp. oleifera; test: Post-emergence herbicidal activity against one-leaf stage Brassica rapa subsp. oleifera under greenhouse condition assessed as complete bleaching of leaves at 150 g /ha measured after 24 days by spray method; type: functional, organism-based
Amaranthus retroflexus [26] = test: Post-emergence herbicidal activity against one-leaf stage Amaranthus retroflexus under greenhouse condition assessed as complete bleaching of leaves at 75 g /ha measured after 24 days by spray method; type: functional, organism-based

Structure (SMILES) | inhibition of growth at 750 g/ha (Echinochloa crus-galli [1]) [%] | inhibition of growth at 150 g/ha (Amaranthus retroflexus [2]) [%] | Activity [3] | Activity [4] | inhibition of growth at 750 g/ha [5] [%] | inhibition of growth at 750 g/ha (Digitaria [6]) [%] | inhibition at 1 µg/mL (Spirodela polyrhiza [7]) [%] | Activity (Amaranthus retroflexus [8]) | inhibition at 10 µg/mL (Spirodela polyrhiza [9]) [%] | Activity [10] | inhibition of growth at 75 g/ha (Amaranthus retroflexus [11]) [%] | inhibition of growth at 75 g/ha [12] [%] | Activity (Amaranthus retroflexus [13]) | inhibition of growth at 600 g/ha (Amaranthus retroflexus [14]) [%] | inhibition of growth at 300 g/ha (Amaranthus retroflexus [15]) [%] | inhibition of growth at 750 g/ha [16] [%] | Activity (Amaranthus retroflexus [17]) | inhibition of growth at 750 g/ha (Amaranthus retroflexus [18]) [%] | inhibition of growth at 750 g/ha (Echinochloa crus-galli [19]) [%] | inhibition of growth at 750 g/ha (Amaranthus retroflexus [20]) [%] | further results
Cc1cc(-c2cccc(C(F)(F)F)c2)c(Oc2cccc(C(F)(F)F)c2)nn1 | 0 | 49 | Active | Active | 99 | 7 | 84 | Active | 92 | Active | 19 | 39 | Active | 94 | 70 | 0 | Active | 0 | 38 | 79 | inhibition of growth at 600 g/ha [21]: 66%; inhibition of growth at 150 g/ha [22]: 52%; inhibition of growth at 750 g/ha (Digitaria [23]): 62%; inhibition of growth at 300 g/ha [24]: 58%; Activity [25]: Active
Cc1cc(-c2cccc(C(F)(F)F)c2)c(Oc2ccc(F)cc2)nn1 | 84 | 79 | Active | Active | 95 | 96 | 75 | Active | 91 | Active | 64 | 53 | Active | 100 | 90 | 98 | Active | 100 | 35 | 96 | Activity (Amaranthus retroflexus [26]): Active; inhibition of growth at 600 g/ha [21]: 83%; inhibition of growth at 150 g/ha [22]: 61%; inhibition of growth at 750 g/ha (Digitaria [23]): 68%; inhibition of growth at 300 g/ha [24]: 70%; Activity [25]: Active
O=C(Nc1ccc(F)cc1F)c1cccnc1Oc1cccc(C(F)(F)F)c1 [DIFLUFENICAN] | 94 | 70 | Active | Active | 98 | 100 | 90 | Active | 94 | Active | 41 | 44 | Active | 100 | 74 | 71 | Active | 90 | 67 | 100 | Activity (Amaranthus retroflexus [26]): Active; inhibition of growth at 600 g/ha [21]: 98%; inhibition of growth at 150 g/ha [22]: 88%; inhibition of growth at 750 g/ha (Digitaria [23]): 83%; inhibition of growth at 300 g/ha [24]: 94%; Activity [25]: Active
Cc1cc(-c2cccc(C(F)(F)F)c2)c(Oc2ccc(Cl)cc2)nn1 | 85 | 84 | Active | Active | 98 | 97 | 72 | Active | 99 | Active | 45 | 65 | Active | 90 | 86 | 97 | Active | 100 | 78 | 94 | Activity (Amaranthus retroflexus [26]): Active; inhibition of growth at 600 g/ha [21]: 80%; inhibition of growth at 150 g/ha [22]: 71%; inhibition of growth at 750 g/ha (Digitaria [23]): 79%; inhibition of growth at 300 g/ha [24]: 76%; Activity [25]: Active
